In general, IC50 refers to the concentration at which inhibition is half-maximal. Read a high IC50 as lower potency.

Where a name gives a salt, the structure may show the parent alone.

CGRP receptor, sequence (Q16602 23-461): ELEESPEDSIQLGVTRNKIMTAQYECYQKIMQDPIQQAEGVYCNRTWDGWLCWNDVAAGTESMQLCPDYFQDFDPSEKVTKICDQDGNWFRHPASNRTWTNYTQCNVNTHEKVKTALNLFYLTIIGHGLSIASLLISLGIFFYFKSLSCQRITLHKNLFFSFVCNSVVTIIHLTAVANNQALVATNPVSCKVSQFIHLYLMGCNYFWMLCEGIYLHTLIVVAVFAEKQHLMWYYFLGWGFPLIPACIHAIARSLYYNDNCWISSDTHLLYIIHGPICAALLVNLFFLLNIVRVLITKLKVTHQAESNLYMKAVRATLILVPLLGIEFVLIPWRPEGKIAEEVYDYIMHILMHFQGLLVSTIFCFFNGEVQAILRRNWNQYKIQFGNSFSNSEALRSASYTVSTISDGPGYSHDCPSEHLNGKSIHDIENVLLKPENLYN
CGRP receptor, sequence (O60894 27-148): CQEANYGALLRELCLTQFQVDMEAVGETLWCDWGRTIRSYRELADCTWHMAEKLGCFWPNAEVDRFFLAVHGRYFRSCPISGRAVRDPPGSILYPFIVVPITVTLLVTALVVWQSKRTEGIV

For the experiment, the target named is CGRP receptor (Homo sapiens, UniProt O60894+Q16602). The experiment can be described thus: CGRP radioligand binding assay ([125I]-CGRP displacement, SK-N-MC homogenate). More on the design: endogenous in cells; host or cells: SK-N-MC cells (homogenate/membrane pellet). Conditions: displacement of [125I]-CGRP, room temperature 2 h. The method, then:
CGRP Binding Assay. Tissue Culture. SK—N-MC cells were grown at 37° C. in 5% CO2 as a monolayer in medium consisting of MEM with Earle's salts and L-glutamine (Gibco) supplemented with 10% fetal bovine serum (Gibco). Cell Pellets. The cells were rinsed twice with phosphate-buffered saline (155 mM NaCl, 3.3 mM Na2HPO4, 1.1 mM KH2PO4, pH 7.4), and incubated for 5-10 min. at 4° C. in hypotonic lysis buffer consisting of 10 mM Tris (pH 7.4) and 5 mM EDTA. The cells were transferred from plates to polypropylene tubes (16×100 mm) and homogenized using a polytron. Homogenates were centrifuged at 32,000×g for 30 min. The pellets were resuspended in cold hypotonic lysis buffer with 0.1% mammalian protease inhibitor cocktail (Sigma) and assayed for protein concentration. The SK—N-MC homogenate was then aliquoted and stored at −80° C. until needed.
Radioligand Binding Assay. The compounds of invention were solubilized and carried through serial dilutions using 100% DMSO. Aliquots from the compound serial dilutions were further diluted 25 fold into assay buffer (50 mM Tris-Cl pH 7.5, 5 mM MgCl2, 0.005% Triton X-100) and transferred (volume 50 μl) into 96 well assay plates. [^125I]-CGRP (Amersham Biosciences) was diluted to 60 pM in assay buffer and a volume of 50 μl was added to each well. SK—N-MC pellets were thawed, diluted in assay buffer with fresh 0.1% mammalian protease inhibitor cocktail (Sigma), and homogenized again. SK—N-MC homogenate (5 μg/well) was added in a volume of 100 μl. The assay plates were then incubated at room temperature for 2 h. Assays were stopped by addition of excess cold wash buffer (20 mM Tris-Cl pH 7.5, 0.1% BSA) immediately followed by filtration over glass fiber filters (Whatman GF/B) previously soaked in 0.5% PEI. Non-specific binding was defined with 1 μM beta-CGRP. Protein bound radioactivity was determined using a gamma or scintillation counter. The IC50 was defined as the concentration of a compound of invention required to displace 50% of radioligand binding.
A general note: Loss of bound radioactivity is the signal in a displacement assay; it reports binding, not function.
Molecule `O=C(C[C@@H]1Cc2cc(Cl)c3[nH]ncc3c2CN(Cc2ccncc2)C1=O)N1CCC(c2ccc(-c3ccccc3)c[n+]2[O-])CC1` [Example 83, (S)-1-[[(7S)-4-chloro-3,6,7,8,9,10-hexahydro-8-oxo-9-(4-pyridinylmethyl)azepino[3,4-e]indazol-7-yl]acetyl]-4-(1-oxido-5-phenyl-2-pyridinyl)-piperidine] gave an IC50 of 100 to 1000 nM. On to `CC(C)c1cc2c(c3cn[nH]c13)CN(CC(F)(F)F)C(=O)[C@H](CC(=O)N1CCC(c3cc4cccc(F)c4[nH]c3=O)CC1)C2` [Example 107, (S)-7-(2-(4-(8-fluoro-2-oxo-1,2-dihydroquinolin-3-yl)piperidin-1-yl)-2-oxoethyl)-4-isopropyl-9-(2,2,2-trifluoroethyl)-6,7,9,10-tetrahydroazepino[3,4-e]indazol-8(3H)-one], for which the IC50 is 100 to 1000 nM. Turning to `CC(C)(C)CN1Cc2c(ccc3[nH]ncc23)C[C@@H](CC(=O)N2CCC3(CC2)NC(=O)Nc2ccccc23)C1=O` [Example 71, 1-[[7-(S)-9-(2,2-Dimethylpropyl)-3,6,7,8,9,10-hexahydro-8-oxoazepino[3,4-e]indazol-7-yl]acetyl]-spiro[piperidine-4,4′(1′H)-quinazolin]-2′(3′H)-one], the IC50 lay in the range of 100 to 1000 nM. As for `O=C(C[C@@H]1Cc2cc(Cl)c3[nH]ncc3c2CN(Cc2ccncc2)C1=O)N1CCC(c2cc(-c3ccccc3)[nH]n2)CC1` [Example 35, (S)-4-Chloro-7-(2-oxo-2-(4-(5-phenyl-1H-pyrazol-3-yl)piperidin-1-yl)ethyl)-9-(pyridin-4-ylmethyl)-6,7,9,10-tetrahydroazepino[3,4-e]indazol-8(3H)-one], the figure is 10 to 100 nM; as for `O=C(C[C@@H]1Cc2cc(Br)c3[nH]ncc3c2CN(CC2CC2)C1=O)N1CCC(c2cc3cccc(F)c3[nH]c2=O)CC1` [Example 112, (S)-4-bromo-9-(cyclopropylmethyl)-7-(2-(4-(8-fluoro-2-oxo-1,2-dihydroquinolin-3-yl)piperidin-1-yl)-2-oxoethyl)-6,7,9,10-tetrahydroazepino[3,4-e]indazol-8(3H)-one], 10 to 100 nM. In turn, `Cc1cc2c(cc1N)CN(Cc1ccccc1)C(=O)[C@H](NC(=O)N1CCC(N3Cc4ccccc4NC3=O)CC1)C2` [Example 55, (R)-N-(8-Amino-2-benzyl-7-methyl-3-oxo-2,3,4,5-tetrahydro-1H-benzo[c]azepin-4-yl)-4-(2-oxo-1,2-dihydroquinazolin-3(4H)-yl)piperidine-1-carboxamide trifluoroacetate] registered an IC50 of 100 to 1000 nM. The figure for `C=C(C)c1cc2c(c3cn[nH]c13)CN(CC(F)(F)F)C(=O)[C@H](CC(=O)N1CCC(c3cc4cccc(F)c4[nH]c3=O)CC1)C2` [Example 109, (S)-7-(2-(4-(8-fluoro-2-oxo-1,2-dihydroquinolin-3-yl)piperidin-1-yl)-2-oxoethyl)-4-(prop-1-en-2-yl)-9-(2,2,2-trifluoroethyl)-6,7,9,10-tetrahydroazepino[3,4-e]indazol-8(3H)-one] is 100 to 1000 nM; for `O=C(N[C@@H]1Cc2ccc3[nH]ncc3c2CN(Cc2ccc(C(F)(F)F)cc2)C1=O)N1CCC(N2Cc3ccccc3NC2=O)CC1` [Example 13, 4-(2-Oxo-1,4-dihydro-2H-quinazolin-3-yl)-piperidine-1-carboxylic acid [8-oxo-9-(4-trifluoromethyl-benzyl)-3,6,7,8,9,10-hexahydro-2,3,9-triaza-(R)-cyclohepta[e]inden-7-yl]-amide] it is 10 to 100 nM. The figure for `CC(C)(C)CN1Cc2c(cc(Cl)c3[nH]ncc23)C[C@@H](CC(=O)N2CCC(c3cc4c(F)cccc4[nH]c3=O)CC2)C1=O` [Example 118] is 10 to 100 nM. As for `CC(C)(C)CN1Cc2c(cc(Cl)c3[nH]ncc23)C[C@@H](CC(=O)N2CCC(c3cc4ccccc4cc3O)CC2)C1=O` [Example 74, 1-[[7-(S)-4-choro-9-(2,2-Dimethylpropyl)-3,6,7,8,9,10-hexahydro-8-oxoazepino[3,4-e]indazol-7-yl]acetyl]-4-(3-hydroxy-2-naphthalenyl)piperidine], the figure is more than 1000 nM. `CC(C)N1Cc2c(ccc3[nH]ncc23)C[C@@H](NC(=O)N2CCC(N3Cc4ccccc4NC3=O)CC2)C1=O` [Example 15, 4-(2-Oxo-1,4-dihydro-2H-quinazolin-3-yl)-piperidine-1-carboxylic acid (9-isopropyl-8-oxo-3,6,7,8,9,10-hexahydro-2,3,9-triaza-(R)-cyclohepta[e]inden-7-yl)-amide] showed an IC50 of 10 to 100 nM.

In turn, `CC(C)(C)CN1Cc2c(cc(Cl)c3[nH]ncc23)C[C@@H](CC(=O)N2CCC(c3cc4cccc(Cl)c4[nH]c3=O)CC2)C1=O` [Example 117] returned an IC50 of 100 to 1000 nM. The figure for “(7S)-9-Benzyl-7-(2-oxo-2-(4-(2-oxo-1,2,3,4-tetrahydroquinolin-3-yl)piperazin-1-yl)ethyl)-6,7,9,10-tetrahydroazepino[3,4-e]indazol-8(3H)-one [Example 58]” is 100 to 1000 nM; for `CC(C)(C)CN1Cc2c(ccc3[nH]ncc23)C[C@@H](NC(=O)N2CCC(N3Cc4ccccc4CC3=O)CC2)C1=O` [Example 69, (R)-N-(9-Neopentyl-8-oxo-3,6,7,8,9,10-hexahydroazepino[3,4-e]indazol-7-yl)-4-(3-oxo-3,4-dihydroisoquinolin-2(1H)-yl)piperidine-1-carboxamide] it is 10 to 100 nM.

`CC(C)(C)CN1Cc2c(cc(Cl)c3[nH]ncc23)C[C@@H](CC(=O)N2CCC(N3Cc4cccnc4NC3=O)CC2)C1=O` [Example 78] displayed a concentration for half-maximal inhibition (IC50) of 0.1 to 10 nM.

As for `CC(C)(C)OC(=O)N1CCC(N2Cc3c(ccc4[nH]ncc34)C[C@@H](NC(=O)N3CCC(N4Cc5ccccc5NC4=O)CC3)C2=O)CC1` [Example 17], the IC50 fell in the range of 10 to 100 nM. As for `O=C(C[C@@H]1Cc2cc(Br)c3[nH]ncc3c2CN(CC(F)(F)F)C1=O)N1CCC(c2cc3cccc(F)c3[nH]c2=O)CC1` [Example 98, (S)-4-bromo-7-(2-(4-(8-fluoro-2-oxo-1,2-dihydroquinolin-3-yl)piperidin-1-yl)-2-oxoethyl)-9-(2,2,2-trifluoroethyl)-6,7,9,10-tetrahydroazepino[3,4-e]indazol-8(3H)-one], the figure is 10 to 100 nM; as for `O=C(N[C@@H]1Cc2ccc3[nH]ncc3c2CN(CCN2CCCC2)C1=O)N1CCC(N2Cc3ccccc3NC2=O)CC1` [Example 4, 4-(2-Oxo-1,4-dihydro-2H-quinazolin-3-yl)-piperidine-1-carboxylic acid [8-oxo-9-(2-pyrrolidin-1-yl-ethyl)-3,6,7,8,9,10-hexahydro-2,3,9-triaza-(R)-cyclohepta[e]inden-7-yl]-amide], 100 to 1000 nM; as for `O=C(C[C@@H]1Cc2cc(Cl)c3[nH]ncc3c2CN(Cc2ccncc2)C1=O)N1CCC(c2cc3ccccc3c[n+]2[O-])CC1` [Example 82], 0.1 to 10 nM. The figure for `Cc1cc2c(c3cn[nH]c13)CN(CC(F)(F)F)C(=O)[C@H](CC(=O)N1CCC(c3cc4cccc(F)c4[nH]c3=O)CC1)C2` [Example 103, (S)-7-(2-(4-(8-fluoro-2-oxo-1,2-dihydroquinolin-3-yl)piperidin-1-yl)-2-oxoethyl)-4-methyl-9-(2,2,2-trifluoroethyl)-6,7,9,10-tetrahydroazepino[3,4-e]indazol-8(3H)-one] is 10 to 100 nM; for `CC(C)(C)CN1Cc2c(ccc3[nH]ncc23)C[C@H](CC(=O)N2CCC(N3Cc4ccccc4NC3=O)CC2)C1=O` [Example 66, 9-(2,2-dimethyl-propyl)-7-(R)-{2-oxo-2-[4-(2-oxo-1,4-dihydro-2H-quinazolin-3-yl)-piperidin-1-yl]-ethyl}-6,7,9,10-tetrahydro-3H-2,3,9-triaza-cyclohepta[e]inden-8-one] it is 10 to 100 nM. The figure for `O=C(C[C@@H]1Cc2cc(Br)c3[nH]ncc3c2CN(CC(F)(F)F)C1=O)N1CCC(c2cc3ccccc3[nH]c2=O)CC1` [Example 97, (S)-4-bromo-7-(2-oxo-2-(4-(2-oxo-1,2-dihydroquinolin-3-yl)piperidin-1-yl)ethyl)-9-(2,2,2-trifluoroethyl)-6,7,9,10-tetrahydroazepino[3,4-e]indazol-8(3H)-one] is 0.1 to 10 nM; for `CC(C)(C)CN1Cc2c(cc(Cl)c3[nH]ncc23)C[C@@H](CC(=O)N2CCC(c3ccc(-c4ccccc4)c[n+]3[O-])CC2)C1=O` [Example 84, (S)-1-[[(7S)-4-chloro-9-(2,2-dimethylpropyl)-3,6,7,8,9,10-hexahydro-8-oxoazepino[3,4-e]indazol-7-yl]acetyl]-4-(1-oxido-5-phenyl-2-pyridinyl)-piperidine] it is 100 to 1000 nM. `CC(C)(C)CN1Cc2c(ccc3[nH]ncc23)C[C@@H](NC(=O)N2CCN(C3Cc4ccccc4NC3=O)CC2)C1=O` (stereo partly drawn) [Example 68, N-((R)-9-Neopentyl-8-oxo-3,6,7,8,9,10-hexahydroazepino[3,4-e]indazol-7-yl)-4-(2-oxo-1,2,3,4-tetrahydroquinolin-3-yl)piperazine-1-carboxamide] returned an IC50 of 100 to 1000 nM.

(Values after patent publication US7384931B2, “Constrained compounds as CGRP-receptor antagonists” (Bristol-Myers Squibb Company, priority 2004, dated 2008).)
